# Key:
# [1] = clinical trials; cited from earlier work
# [2] = system: Hep-G2 cells; assay: CCK-8 cytotoxicity assay, Hep-G2; format: cell-based; conditions: Homo sapiens, HepG2; Hep-G2, CCK-8, 72 h incubation, n = 3
# Protocol: (§1) The cytotoxicity of HL, 1, and 2 against three hepatocellular carcinoma cell lines Hep-G2, PLC/PRF/5, and HuH-7 were evaluated by the cell counting kit-8 (CCK-8; APExBIO Technology, Houston, TX, USA) assay.
# (§2) The HuH-7 cell line was cultured in DMEM + 10% FBS + 1% P/S and DMEM + 1% P/S. Cells grew as a monolayer and were detached upon confluence using trypsin (0.5% w/v in PBS). The cells were harvested from the cell culture medium by incubation in trypsin solution for 3 min, and they were then centrifuged with the supernatant and subsequently discarded. A 3 mL portion of serum-supplemented cell culture medium was added to neutralize any residual trypsin. The cells were re-suspended in serum-supplemented DMEM at a concentration of 5 × 10^4 cells/mL. […] After incubation, 100 μL of culture medium (DMEM + 10% FBS + 1% P/S) and 10 μL of CCK-8 was introduced and cultured for an additional 2 h before spectrophotometric measurement at 450 nm on a microplate reader. The relative cell viability (%) related to control cells was calculated using the equation: V%=[A]experimental−[A]blank/[A]control−[A]blank×100% where V% is the percentage of cell viability, [A]experimental is the absorbance of the wells culturing the treated cells, [A]blank is the absorbance of the blank, and [A]control is the absorbance of the wells culturing untreated cells. […]
# [3] = system: CD®(SD) IGS rats; assay: Toxicological study of HL, daily PO administration; format: in vivo
# Protocol: Their weight and status were monitored and compared with the control group (groups 1 and 2) that was fed sterilizing solutions. […] This highlights that a 5 mg kg^−1 drug dosage of HL by PO administration is safe for in vivo studies.
# The weight of the rats was continuously monitored over 27 days, and they were fed on day 1, 4, 8, 13, 16, 19, and 23.
# [4] = In vivo pharmacokinetic study of HL (plasma, HPLC); design: species or system CD®(SD) IGS rats
# Protocol: For pharmacokinetic studies, CD®(SD) IGS rats (5−6 weeks old) were randomly divided into two groups (three for each group) for oral administration (per os, PO) or intravenous administration (i.v.) of HL with dosages of 30 mg kg^−1 and 0.5 mg kg^−1, respectively (Tables S3 and S4). The blood was then collected from the orbital sinus with a heparinized syringe at different time intervals (0.5, 1.0, 2.0, 4.0, 8.0, and 24 h for PO, and 0.03, 0.5, 1.0, 2.0, 4.0, 8.0, and 24 h for i.v.).
# CD®(SD) IGS rats (5–6 weeks old) were purchased from Beijing Vital River Laboratory Animal Technology Co., Ltd. (Beijing, China). All animal experiments were conducted in accordance with the requirements of the Experimental Animal Welfare Ethics Committee of Transcenta Diagnostic Technology (Suzhou) Co., Ltd. (PZ-20211210001). For pharmacokinetic experiments, SD rats were randomly divided into two groups, with 3 for PO administration (30 mg kg^−1) and i.v. administration (0.5 mg kg^−1), respectively. Plasma was collected from the jugular vein with the presence of a heparinized syringe at different time intervals, viz. 0.5, 1.0, 2.0, 4.0, 8.0, and 24 h for PO and 0.03, 0.5, 1.0, 2.0, 4.0, 8.0, and 24 h for i.v. Plasma was first centrifuged at 3500 rpm for 10 min, and then 0.05 mL of the plasma was extracted; trifluoroacetic acid was used to acid precipitate protein, and NaOH was used to neutralize the solution. The mixture was diluted using MeCN: H2O (5:5 v/v). After 10 min of precipitating, supernatant fluids were collected by centrifugation at 10,000 rpm for 5 min and filtered with a syringe through a 0.22 μm hydrophilic membrane filter and measured using the HPLC method. For the HPLC assay, the analytical column was an Agilent ZORBAX SB C18 column (4.6 mm × 150 mm, 5 μm). The mobile phase was MeCN:H2O (5:5 v/v), the flow rate of the mobile phase was 0.8 mL min^−1, and the UV detector was set at 245 nm.
# [5] = system: HuH-7 cells; assay: CCK-8 cytotoxicity assay, HuH-7; format: cell-based; conditions: Homo sapiens; HuH-7, CCK-8, 72 h incubation, n = 3
# Protocol: as §1, §2
# [6] = Hydroxyl radical (•OH) production from H2O2, TMB assay; conditions: 5, 10, 20, 30 μg/mL HL or equivalent HL, 100 μM H2O2, 20 min incubation
# Protocol: The generation of •OH from H2O2 by HL, 1, and 2 was assayed by 3,3′,5,5′-tetramethylbenzidine (TMB) [12, 28, 29]. The colorless TMB can be quickly oxidized by •OH to give a characteristic blue charge-transfer complex oxTMB with intense absorption at 652 nm [30, 31]. Different concentrations of HL (5, 10, 20, 30 μg/mL) or 1 and 2 containing equivalent HL were treated with (TMB) solution containing 100 μM H2O2, which is assumed as approximately the concentration reported to be present in tumor cells, or five times that in normal cells [32, 33].
# [7] = system: PLC/PRF/5 cells; assay: CCK-8 cytotoxicity assay, PLC/PRF/5; format: cell-based; conditions: Homo sapiens; PLC/PRF/5, CCK-8, 72 h incubation, n = 3
# Protocol: as §1, §2
# [8] = Stability of MeOH solutions by UV-Vis; conditions: HL/L concentration 30 μg/mL, kept for 72 h
# [9] = system: HuH-7 cells; assay: Intracellular ROS generation, DCFH-DA probe; format: cell-based; conditions: HuH-7, equivalent HL concentration 2 μg/mL, 2 h
# From the text: Given the efficient •OH production in water induced by 1 and 2, we next investigated in vitro ROS generation by 1 and 2 in the representative HuH-7 cell line using 2′,7′-dichlorodihydrofluorescein diacetate (DCFH-DA) as a fluorescence probe and compared it with that of HL [34, 35]. The non-emissive DCFH-DA can be readily uptaken by the cell, where it is hydrolyzed into 2,7-dichlorodihydrofluorescein (DCFH) by cellular enzymes. Upon oxidation by ROS, DCFH can convert to 2,7-dichlorofluorescein (DCF), which gives bright green fluorescence.
# HuH-7 cells were introduced into a 12-well plate (4 × 10^5 per well) in 1 mL of growing media (DMEM + 10% FBS + 1% P/S), and the cells were incubated at 37 °C under 5% CO2 for 24 h for attachment. The growing media were removed, and the wells were replenished with HL, 1, and 2 in 1 mL of growing media (with 2 ppm of DMSO) with equivalent HL concentrations of 2 μg/mL. The cells were incubated for an additional 2 h, and then the culturing media was replaced with […] DCFH-DA in DMEM + 1% P/S (1 mL), prepared by diluting (1:1000) a concentrated DCFH-DA following the supplied protocols. The cells were incubated for a further 20 min, and then the culturing media was removed. […]
# [10] = CD(SD) IGS (SD), rat, plasma, iv, 0.5 mg kg−1, mean, n = 3
# [11] = CD(SD) IGS (SD), rat, plasma, iv, 0.5 mg/kg, 0.5 mg kg−1, mean, n = 3
# [12] = CD(SD) IGS (SD), rat, plasma, po, 30 mg/kg, 30 mg kg−1, mean, n = 3
# [13] = CD(SD) IGS (SD), rat, plasma, PO, 30 mg kg−1, mean, n = 3
structure (smiles),measurement,setting,value
"S=C(N/N=C1\CCCc2cccnc21)N1CCN(c2ccccn2)CC1 [COTI-2, 4-(pyridine-2-yl)-N-([(8E)-5,6,7,8-tetrahydroquinolin-8-ylidene]amino)piperazine-1-carbothioamide]",side effects,[1],"drug resistance and other adverse effects (i.e., nausea, vomiting, and fatigue)"
"NC(=S)NN=Cc1ccc(O)cn1 [Compound 5-HP, 5-hydroxypicolinaldehyde thiosemicarbazone]",side effects,[1],severe hematological and gastrointestinal side effects
"S=C(NN=C(c1ccccn1)c1ccccn1)N1CCN(c2nccs2)CC1 [HL, N′-(di(pyridin-2-yl)methylene)-4-(thiazol-2-yl)piperazine-1-carbothiohydrazide]",IC50,[2],78.8 µM
same,body weight of rats,"[3]; daily 5 mg kg−1 (12.2 μmol kg−1), groups 3 and 4, similar to control groups 1 and 2",constantly growing
same,"rats with abnormal behaviors (decreasing food uptake, cachexia, lethargy) on day 9, which died or were euthanized after drug suspension","[3]; daily 10 mg kg−1 (24.4 μmol kg−1), groups 5 and 6",four of six
same,AUC(0-inf),[4]; [10],5700 ± 2650 ng·h/mL
same,AUC(0-t),[4]; [10],4210 ng·h/mL
same,C0,[4]; [10],858 ng/mL
same,MRT last,[4]; [10],7.85 h
same,half-life,[4]; [10],11.9 ± 1.66 h
same,clearance,"[4]; CD(SD) IGS (SD), rat, plasma, iv, 0.5 mg kg−1, mean, n = 3, read-out: Cl_obs (converted)",1.8 mL/min/kg
same,concentration at 0.03 h,"[4]; CD(SD) IGS (SD), rat, plasma, iv, 0.5 mg kg−1, sampling time 0.03 h",806 ng/mL
same,concentration at 0.5 h,"[4]; CD(SD) IGS (SD), rat, plasma, iv, 0.5 mg kg−1, sampling time 0.50 h",349 ng/mL
same,concentration at 1 h,"[4]; CD(SD) IGS (SD), rat, plasma, iv, 0.5 mg kg−1, sampling time 1.00 h",341 ng/mL
same,concentration at 2 h,"[4]; CD(SD) IGS (SD), rat, plasma, iv, 0.5 mg kg−1, sampling time 2.00 h",372 ng/mL
same,concentration at 4 h,"[4]; CD(SD) IGS (SD), rat, plasma, iv, 0.5 mg kg−1, sampling time 4.00 h",240 ng/mL
same,concentration at 8 h,"[4]; CD(SD) IGS (SD), rat, plasma, iv, 0.5 mg kg−1, sampling time 8.00 h",163 ng/mL
same,concentration at 24 h,"[4]; CD(SD) IGS (SD), rat, plasma, iv, 0.5 mg kg−1, sampling time 24.00 h",83.8 ng/mL
same,Cmax,[4]; [11],806 ± 46.7 ng/mL
same,Tmax,[4]; [11],0.03 h
same,Cmax,[4]; [12],472 ng/mL
same,Tmax,[4]; [12],1.17 h
same,AUC(0-inf),[4]; [13],10400 ± 5310 ng·h/mL
same,AUC(0-t),[4]; [13],5340 ng·h/mL
same,MRT last,[4]; [13],9.4 h
same,half-life,[4]; [13],21.6 ± 9.4 h
same,CL/F,"[4]; CD(SD) IGS (SD), rat, plasma, PO, 30 mg kg−1, mean, n = 3, read-out: Cl_F_obs (converted)",55.6 mL/min/kg
same,concentration at 0.5 h,"[4]; CD(SD) IGS (SD), rat, plasma, PO, 30 mg kg−1, sampling time 0.50 h",242 ng/mL
same,concentration at 1 h,"[4]; CD(SD) IGS (SD), rat, plasma, PO, 30 mg kg−1, sampling time 1.00 h",426 ng/mL
same,concentration at 2 h,"[4]; CD(SD) IGS (SD), rat, plasma, PO, 30 mg kg−1, sampling time 2.00 h",410 ng/mL
same,concentration at 4 h,"[4]; CD(SD) IGS (SD), rat, plasma, PO, 30 mg kg−1, sampling time 4.00 h",316 ng/mL
same,concentration at 8 h,"[4]; CD(SD) IGS (SD), rat, plasma, PO, 30 mg kg−1, sampling time 8.00 h",218 ng/mL
same,concentration at 24 h,"[4]; CD(SD) IGS (SD), rat, plasma, PO, 30 mg kg−1, sampling time 24.00 h",145 ng/mL
same,Vz_F_obs,"[4]; PO, 30 mg kg−1, mean, n = 3",93.07416 L/kg
same,Vss_obs,"[4]; i.v., 0.5 mg kg−1, mean, n = 3",1.75547 L/kg
same,Vz_obs,"[4]; i.v., 0.5 mg kg−1, mean, n = 3",1.75231 L/kg
same,IC50,[5],192 µM
same,"generation of •OH from H2O2 (oxTMB, absorption at 652 nm)",[6],no oxTMB found
same,IC50,[7],3.26 µM
same,stability of MeOH solution (UV-Vis absorption pattern),[8],remained stable
same,intracellular ROS generation (DCF fluorescence),[9],negligible ROS
"NC(=S)NN=Cc1ncccc1N [Triapine, 3-aminopyridine-2-carboxaldehyde thiosemicarbazone]",side effects,[1],formation of methemoglobin hypoxia

# Reference: article PMC11357102, “Thiazole Functionalization of Thiosemicarbazone for Cu(II) Complexation: Moving toward Highly Efficient Anticancer Drugs with Promising Oral Bioavailability” (Molecules, 2024)
